Experimental data published in patent US12428455B2, “Dominant negative CEBPB and CEBPD proteins and methods of use for decreasing viability of neoplastic cells” (The Trustees of Columbia University in the City of New York, priority 2018, dated 2025).
No end group written: not given here.

Assays:
LN229 glioblastoma cells = test: Cell number after peptide treatment, LN229; assay type: cell-based, human; conditions: for growth and survival of LN229 cells: 6 days, 0 μM to 50 μM, stock without BSA
Protocol: In some implementations, the mixture of arg/glu may be added at a molarity of, or of about 5 mM, 10 mM, 15 mM, 20 mM, 25 mM, or 30 mM.
(§1) Replicate cultures were exposed to the peptides the for 6 days at the indicated concentrations. Stock solutions of the peptides were prepared in buffer without added bovine serum albumin (BSA).

[1] = tested on: B16 murine melanoma cells; test: Cell number after peptide treatment, B16; assay type: cell-based; conditions: 6 days, 0 μM to 50 μM; stock without BSA
Protocol: as §1

HCT116 cells = test: Colony forming activity in soft agar, HCT116; assay type: cell-based; conditions: 6 days; doses 0.05, 0.5 and 5 μM
Protocol: (§2) T98G (FIG. 21A), MDA-MB 231 (FIG. 21B), and HCT116 (FIG. 21C) cells were exposed to CP-DN-CEBPB and CP-DN-CEBPD for 6 days at doses of 0.05 μM 0.5 μM, and 5 μM while growing in soft agar. Growth was inhibited by does as low as 0.5 μM. T98G (FIG. 21D), MDA-MB 231 (FIG. 21E), and HCT116 (FIG. 21F) cells were exposed to CP-DN-CEBPB and CP-DN-CEBPD for 6 days at doses of 0.05 μM 0.5 μM, and 5 μM while growing on culture plates. Growth was inhibited by does as low as 0.5 μM.

T98G cells [2] = test: Colony forming activity on culture plates, T98G; assay type: cell-based; conditions: 6 days; doses 0.05, 0.5 and 5 μM
Protocol: as §2

T98G cells [3] = test: Scratch migration assay, T98G; assay type: cell-based; conditions: 20 hours, 20 μM or 40 μM
Protocol: (§3) Monolayers of MDA-MB 231 or T98G cells were subjected to formation of a scratch at 0 time and cultured for 20 hours in 20 μM or 40 μM CP-DN-CEBPB and CP-DN-CEBPD. Multiple images taken at 0 time and after 20 hours were analyzed for gap width of the scratches into which cells migrated or not. Example images for T98G are found in FIG. 22A, with compiled data for the T98G samples in FIG. 22B. Example images for MDA-MB 231 are found in FIG. 22C, with compiled data for the MDA-MB 231 samples in FIG. 22D.

MDA-MB 231 cells = test: Scratch migration assay, MDA-MB 231; assay type: cell-based; conditions: 20 hours, 20 μM or 40 μM
Protocol: as §3

[4] = tested on: MCF10A non-cancer human breast epithelial cells; test: Morphology after peptide treatment, MCF10A; assay type: cell-based; conditions: 5 to 6 days, 20 μM or 50; stock without BSA
Protocol: Stock solutions of the peptides were prepared in buffer without added bovine serum albumin (BSA).

MCF7 cells = test: Apoptotic nuclei, propidium iodide flow cytometry, MCF7; assay type: cell-based; conditions: 20 μM, 3 days, vs untreated cells
Protocol: MDA-MB-231, MCF7, HCT116 and T98G cancer cell lines were treated for 3 days with 20 μM CP-dn-CEBPB and CP-dn-CEBPD peptides from stock solutions prepared without additives. Cultures were stained with propidium iodide and assessed for proportion of cells with apoptotic nuclei by flow cytometry.

[5] = tested on: T98G, MDA-MB 231, and MCF7 cells; test: Combination with paclitaxel, overall conclusion; assay type: cell-based; conditions: co-treatment, cell number or colony number
Protocol: Replicate cultures of T98G, MDA-MB 231, and MCF7 cells were treated with 1 nM or 5 nM paclitaxel and 3 μM, 10 μM, or 20 μM CP-dn-CEBPB and CP-dn-CEBPD peptides, maintained for 6 days, and then assessed for cell number. The bar graphs of FIGS. 26A (T98G, CP-dn-CEBPB), 26C (T98G, CP-dn-CEBPBD, 26E (MDA-MB-231, CP-dn-CEBPBD), 26G (MDA-MB-231, CP-dn-CEBPD), 26I (MCF7, CP-dn-CEBPBB), and 26K (MCF7, CP-dn-CEBPBD) show relative cell numbers for each condition as compared to untreated controls. The line graphs of FIGS. 26B (T98G, CP-dn-CEBPB), 26D (T98G, CP-dn-CEBPBD), 26F (MDA-MB-231, CP-dn-CEBPB), 26H (MDA-MB-231, CP-dn-CEBPD), 26J (MCF7, CP-dn-CEBPB), and 26L (MCF7 CP-dn-CEBPBD) show the response as normalized in each case so that 100 represents the relative number of surviving cells that received the indicated level of paclitaxel, but no peptide treatment. Calculated combination indices (CI) were as follows: MCF7: CI=0.41±0.04 for CP-dn-CEBPB; 0.44±0.04 for CP-dn-CEBPD; MDA-MB-231: 0.74±0.03 for CP-dn-CEBPB; 0.74±0.05 for CP-dn-CEBPD; T98G: CI=0.84±0.06 for CP-dn-CEBPB and 0.75±0.07 for CP-dn-CEBPD.
Replicate cultures of MDA-MB-231 cells in soft agar were treated with 0.1 nM or 0.5 nM 50 nM or 500 nM CP-dn-CEBPB and CP-dn-CEBPD peptides, maintained for 12 days, and then assessed for colony number. […]

[6] = tested on: paclitaxel-resistant T98G cells; test: Cell number, paclitaxel-resistant T98G cells; assay type: cell-based; conditions: 6 days; 0 μM to 50 μM peptide or 0 nM to 50 nM paclitaxel
Protocol: Replicate cultures of T98G wild type cells and paclitaxel-resistant T98G cells were treated with 0 nM to 50 nM paclitaxel or 0 μM to 50 μM CP-dn-CEBPB or CP-dn-CEBPD peptides, maintained for 6 days, and then assessed for cell number. Paclitaxel resistant T98G cells were inhibited by both CP-dn-CEBPB (FIG. 28A) and CP-dn-CEBPD (FIG. 28B), but, as expected were not inhibited by paclitaxel (FIG. 28C). This establishes that CP-dn-CEBPB and CP-dn-CEBPD may be effective against chemotherapy-resistant cells.

[7] = tested on: ASNS (Asparagine synthetase); test: qPCR for ASNS; assay type: cell-based; conditions: 20 μM, 3 days; T98G, MDA-MB-231, MCF7, A375 and HCT116 cells
Protocol: T98G, MDA-MB-231, MCF7, A375, and HCT116 cells were treated with or without 20 μM CP-dn-CEBPB or CP-dn-CEBPD for 3 days and then assessed by qPCR for relative levels of ASNS (Asparagine synthetase) (FIG. 33A, T98G; FIG. 33B, MDA-MB-231; FIG. 33C, MCF7; FIG. 33D, A375; FIG. 33E, HCT116).

Sequence: RQIKIWFQNRRMKWKKLVELSAENEKLHQRVEQLTRDLAGLRQFFK [CP-DN-CEBPD]
- growth and survival of LN229 cells (LN229 glioblastoma cells): decrease in growth and survival
- effect of adding arg/glu mixture at 2 mM (LN229 glioblastoma cells; cultured LN229 cells): only minimal effect
- shift of IC50 by 20 mM arginine and glutamate (LN229 glioblastoma cells; cultured LN229 cells): 10 fold
- growth and survival of B16 cells [1]: decrease in growth and survival
- lowest dose at which growth was inhibited, soft agar (HCT116 cells): 0.5 µM
- lowest dose at which growth was inhibited, culture plates (T98G cells [2]): 0.5 µM
- cell migration into scratch (gap width) (T98G cells [3]): able to inhibit migration
- cell migration into scratch (gap width) (MDA-MB 231 cells): able to inhibit migration
- morphology of MCF10A cells [4]: did not affect the morphology
- proportion of cells with apoptotic nuclei (MCF7 cells): increased apoptotic cell death
- kind of combined effect with paclitaxel [5]: synergistic effect
- inhibition of paclitaxel-resistant T98G cells (cell number) [6]: inhibited
- relative levels of ASNS [7]: suppress expression of ASNS

Sequence: RQIKIWFQNRRMKWKKLETQHKVLELTAENERLQKKVEQLSRELSTLRNLFKQL [CP-DN-CEBPB]
- growth and survival of LN229 cells (LN229 glioblastoma cells): decrease in growth and survival
- effect of adding arg/glu mixture at 2 mM (LN229 glioblastoma cells; cultured LN229 cells): only minimal effect
- growth and survival of B16 cells [1]: decrease in growth and survival
- lowest dose at which growth was inhibited, soft agar (HCT116 cells): 0.5 µM
- lowest dose at which growth was inhibited, culture plates (T98G cells [2]): 0.5 µM
- cell migration into scratch (gap width) (T98G cells [3]): able to inhibit migration
- cell migration into scratch (gap width) (MDA-MB 231 cells): able to inhibit migration
- morphology of MCF10A cells [4]: did not affect the morphology
- proportion of cells with apoptotic nuclei (MCF7 cells): increased apoptotic cell death
- kind of combined effect with paclitaxel [5]: synergistic effect
- inhibition of paclitaxel-resistant T98G cells (cell number) [6]: inhibited
- relative levels of ASNS [7]: suppress expression of ASNS
